“And” between values parts separate entries of the source, which are not always exact repeats. Equal entries are not always repeated. Where two headings read alike, the source gives them in different places.
Assays:
[1] = system: bacteriophage T4 polymerase; experiment: Calculated discrimination, toxicity index and therapeutic index; assay type: biochemical; conditions: for toxicity index (abasic DNA) / toxicity index (unmodified DNA): (kpol dNTP/kexo dXTP)(dXTP/dNTP)/(4D); for discrimination (unmodified DNA): ratio of catalytic efficiencies opposite templating nucleobase; for discrimination (abasic DNA): ratio of catalytic efficiencies, dATP versus dXTP
[2] = molecular target: T1, gp43exo− (bacteriophage T4 DNA polymerase) (Enterobacteria phage T4, UniProt P04415, D219A); conditions: previously demonstrated, cited from earlier work
[3] = molecular target: T1, gp43exo− (bacteriophage T4 DNA polymerase); experiment: biochemical; assay type: biochemical; conditions: for inhibition of replication beyond an abasic site: 20 μM analogue, 500 μM dNTPs
[4] = molecular target: T2, gp43 exo+ (bacteriophage T4 DNA polymerase) (Enterobacteria phage T4, UniProt P04415); experiment: Idle turnover measurements with KINSIM simulation; assay type: biochemical
T2 construct: made in house
T2 sequence (P04415 1-898): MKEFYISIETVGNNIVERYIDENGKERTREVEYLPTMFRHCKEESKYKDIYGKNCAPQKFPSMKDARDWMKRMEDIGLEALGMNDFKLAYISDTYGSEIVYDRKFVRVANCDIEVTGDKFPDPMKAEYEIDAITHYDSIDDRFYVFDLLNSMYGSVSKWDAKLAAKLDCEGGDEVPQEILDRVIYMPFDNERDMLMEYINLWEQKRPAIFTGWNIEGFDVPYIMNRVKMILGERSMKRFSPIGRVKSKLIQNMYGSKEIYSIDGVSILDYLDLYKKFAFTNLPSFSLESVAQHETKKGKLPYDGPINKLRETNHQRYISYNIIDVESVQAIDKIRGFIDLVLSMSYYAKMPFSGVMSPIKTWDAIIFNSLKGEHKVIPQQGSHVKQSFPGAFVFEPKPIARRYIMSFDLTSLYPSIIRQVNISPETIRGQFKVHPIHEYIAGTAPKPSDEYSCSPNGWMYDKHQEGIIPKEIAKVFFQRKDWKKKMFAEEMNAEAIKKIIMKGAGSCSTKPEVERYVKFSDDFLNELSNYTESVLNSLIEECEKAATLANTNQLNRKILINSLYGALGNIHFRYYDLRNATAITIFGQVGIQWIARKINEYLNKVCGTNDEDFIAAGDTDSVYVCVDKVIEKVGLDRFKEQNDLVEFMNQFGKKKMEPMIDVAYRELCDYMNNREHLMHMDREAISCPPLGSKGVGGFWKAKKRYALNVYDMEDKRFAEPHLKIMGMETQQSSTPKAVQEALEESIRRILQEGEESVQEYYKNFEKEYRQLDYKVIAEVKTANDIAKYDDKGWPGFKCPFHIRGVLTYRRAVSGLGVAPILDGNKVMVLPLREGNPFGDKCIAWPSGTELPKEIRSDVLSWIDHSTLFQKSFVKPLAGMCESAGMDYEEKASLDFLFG
Protocol: DNA (13/20SP-mer or 13/20T-mer; 250 nM) was first preincubated with variable concentrations of 5-NITP (20-200 μM) or 5-PhITP (10-200 μM) in the presence of 30 μM dATP. Due to the nature of the DNA substrate (FIG. 1B), the insertion of dAMP opposite T at position 13 in the template maintains a usable primer template for the insertion of the nonnatural nucleotide opposite the abasic lesion (position 14). In all cases, the reaction was initiated through the addition of 1000 nM DNA gp43 exo^+. Five microliter aliquots of the reaction were quenched into tubes containing 5 μL of 200 mM EDTA at times ranging from 5 to 600 s. The quenched samples were processed as described above and product formation was analyzed using established protocols.
Simulations modeling the observed kinetic time courses for nucleotide insertion and excision were performed by mathematical analyses using KINSIM. A simplified mechanism depicted in FIG. 11 was employed that accounts for the kinetic parameters of interest. These minimally include KD values for each nucleotide, kpol values for their insertion, and kexo, which represents the hydrolytic rate constant. Both the starting reactant concentrations and rate constants were supplied for each step of the mechanism. In all cases, the rate constants were based upon either experimentally determined rate constants or published literature values. The simulated curves were then compared to those experimentally derived to judge how accurately each set of rate constants fit the experimental data. Adjustments to the rate constants were then made until the simulated time courses were nearly identical to the experimental time courses.
Idle turnover is a process in which the DNA polymerase incorporates a dNTP and then excises the inserted dNMP in the absence of the next required nucleotide triphosphate (FIG. 11). This activity provides a more accurate representation of in vivo conditions in which the polymerase should be bound and stalled at the sight of DNA damage. Idle turnover was quantified using a modified gel electrophoresis protocol that monitors the amount of extension (13-mer to 14-mer) and subsequent excision (14-mer to 13-mer) of the DNA as a function of time. All experiments were performed using single turnover reaction conditions to ensure that all DNA was bound with polymerase during the course of the reaction. Under these conditions, the rates in product formation reflect the kinetics of insertion and excision rather than enzyme dissociation from the mispair. In each experiment, the concentration of nonnatural nucleotide was varied from 20 to 200 μM. In addition, a low concentration of 30 μM dATP was used to allow for correct dNMP insertion at position 13-mer, which prevents complete degradation of DNA substrate.
Since single turnover reaction conditions were employed, kinetic steps reflecting enzyme dissociation and rebinding to product DNA are assumed to be negligible. Thus, the rate and amount of 14-mer produced are dependent upon four interrelated parameters. These include the kinetic dissociation constant (KD) for dXTP opposite the lesion (DNAn) (step 2), the rate constant for DNA extension (kpol) (step 3), the rate constant of exonuclease degradation (kexo) (step 5), and the kinetic dissociation constant (KD′) for dXTP opposite the next templating position (DNAn+1) (step 6). Although kpol is a complex function of kinetic rate constants, this value was simplified to combine the kinetic steps encompassing the conformational change prior to phosphoryl transfer, phosphoryl transfer, and the conformational change after phosphoryl transfer. Furthermore, translocation of the enzyme and pyrophosphate release (step 4) are assumed to be rapid.

[5] = molecular target: T2, gp43 exo+ (bacteriophage T4 DNA polymerase); experiment: Pre-steady-state exonuclease assay (excision of dXMP from primer); assay type: biochemical; conditions: for kexo: single turnover, 1 μM gp43exo+
[6] = molecular target: T1, gp43exo− (bacteriophage T4 DNA polymerase); assay type: biochemical; conditions: 500 μM analogue; 10 μM dNTPs; unmodified 13/20-mer
[7] = molecular target: T1, gp43exo− (bacteriophage T4 DNA polymerase); conditions: opposite an abasic site; previously determined values (Table 7 footnotes d, e, f not given); cited from earlier work
[8] = molecular target: T1, gp43exo− (bacteriophage T4 DNA polymerase); conditions: cited from earlier work
[9] = molecular target: T1, gp43exo− (bacteriophage T4 DNA polymerase); assay type: biochemical; conditions: 50 μM dXTP 30 s, then 1000 μM dGTP
[10] = molecular target: T1, gp43exo− (bacteriophage T4 DNA polymerase); experiment: biochemical; conditions: for kpol: pseudo-first-order conditions
[11] = molecular target: T1, gp43exo− (bacteriophage T4 DNA polymerase); experiment: biochemical; assay type: biochemical
[12] = molecular target: T2, gp43 exo+ (bacteriophage T4 DNA polymerase); conditions: paired opposite T; cited from earlier work
[13] = idle turnover opposite an abasic site, computer simulation fit of time courses

Compound: O=[N+]([O-])c1ccc2c(ccn2[C@H]2C[C@H](O)[C@@H](COP(=O)(O)OP(=O)(O)OP(=O)(O)O)O2)c1 [5-NITP, 5-nitro-1-indolyl-2′-deoxyribose-5′-triphosphate]
- therapeutic index [1]: ~128
- toxicity index (abasic DNA) [1]: ~6
- toxicity index (unmodified DNA) [1]: 0.047
- discrimination (unmodified DNA) [1]: ~53
- discrimination (abasic DNA) [1]: 6.1×10^−4
- Kd ([2]; independent of templating nucleobase): ~20 µM
- kpol ([2]; opposite T): ~0.9 s⁻¹
- inhibition of replication beyond an abasic site [3]: level of 14-mer product remains invariant
- IC50 [3]: 10 µM and ~10 µM
- Kd ([4]; dXTP opposite the next templating position, computer simulation fit): 10000 µM
- Kd [4, 13]: 20 µM
- kexo [4, 13]: 10 S^−1 and 10 ± 2 S^−1
- kpol [4, 13]: 100 S^−1 and 100 ± 10 S^−1
- kexo ([5]; template abasic site): 9.9 ± 0.8 s⁻¹
- kexo ([5]; template nucleoside thymine): 13.0 ± 1.4 s⁻¹
- inhibition of normal DNA synthesis [6]: little effect
- Kd [7]: 18 µM and 10 µM
- kpol [7]: 126 s⁻¹ and 126 ± 7 s⁻¹
- Kd [8]: 18 µM and ~10 µM
- catalytic efficiency for insertion opposite an abasic site relative to natural nucleotide (dAMP/dATP), greater [8]: 1000 fold
- incorporation opposite an abasic site favored compared to insertion opposite T (kpol) [8]: 140 fold
- kpol [8]: 126 ± 6 s⁻¹
- kpol/KD [8]: 7e+06 M⁻¹ s⁻¹
- extension beyond the mispair formed opposite an abasic site [9]: cannot elongate beyond the 14-mer product

Compound: O=P(O)(O)OP(=O)(O)OP(=O)(O)OC[C@H]1O[C@@H](n2ccc3cc(-c4ccccc4)ccc32)C[C@@H]1O [5-PhITP, 5-Phenyl-indole-2′-Deoxyribofuranoside 5′-Triphosphate]
- toxicity index (abasic DNA) [1]: ~33
- toxicity index (unmodified DNA) [1]: 0.01-0.05
- discrimination (unmodified DNA) [1]: 460-2500
- discrimination (abasic DNA) [1]: 11.4×10^−5 and 11.4 × 10^−4
- Kd ([10]; KD): ~25 µM
- kpol/KD ([10]; Template A): 4.0 × 10^3 M^−1S^−1
- kpol ([10]; Template A): 0.12 ± 0.01 s⁻¹
- kpol/KD ([10]; Template C): 6.8 × 10^3 M^−1S^−1
- kpol ([10]; Template C): 0.19 ± 0.02 s⁻¹
- kpol/KD ([10]; Template G): 21.7 × 10^3 M^−1S^−1
- kpol ([10]; Template G): 0.26 ± 0.02 s⁻¹
- kpol/KD ([10]; Template T): 6.4 × 10^3 M^−1S^−1
- kpol ([10]; Template T): 0.16 ± 0.01 s⁻¹
- amplitude of the burst phase [11]: 75 nM
- burst amplitude [11]: 240 ± 6 nM and 220 ± 3 nM and 220 nM
- kcat [11]: 2.2 s⁻¹
- kobs [11]: 37.4 s⁻¹ and 38.4 s⁻¹ and ~38 s⁻¹ and 38.4 ± 2.1 s⁻¹ and 37.4 ± 1.4 s⁻¹
- kobs calculated from Michaelis-Menten equation [11]: 14 s⁻¹
- kpol [11]: 53 ± 4 s⁻¹
- kpol/KD [11]: 3.8e+06 M⁻¹ s⁻¹
- observed rate constant of the burst phase (kobs) [11]: 9.1 ± 2.1 s⁻¹ and 9 s⁻¹
- Kd ([11]; KD): ~10 µM
- inhibition of replication beyond an abasic site [3]: Identical results are obtained
- IC50 [3]: 10 µM and ~10 µM
- stability of incorporation opposite the abasic site (idle turnover) ([4]; 100 μM nucleotide, compared with 100 μM 5-NITP): more stably incorporated opposite the abasic site
- Kd [4, 13]: 20 ± 5 µM
- kexo [4, 13]: 1.0 ± 0.1 S^−1
- kpol [4, 13]: 50 ± 10 S^−1
- inhibition of normal DNA synthesis [6]: Nearly identical results are obtained
- extension beyond the mispair formed opposite an abasic site [9]: identical results are obtained

Compound: Nc1ncnc2c1ncn2[C@H]1C[C@H](O)[C@@H](COP(=O)(O)O)O1 [dAMP]
- kexo, published value [12]: 2 s⁻¹
- rate constant for excision opposite the abasic site faster than opposite T ([5]; abasic site versus T): ~40 fold
- kexo ([5]; template abasic site): 28.5±1.1 s^−1 and ≈ 28 s^−1 and 28.5+/−1.1 s^−1
- kexo ([5]; template nucleoside thymine): 0.8 ± 0.1 s⁻¹

Source: US8114847B2, “Selective inhibitors of translesion DNA replication” (Case Western Reserve University, priority 2005, dated 2012)
